The first test addresses T1, OX2 receptor (Homo sapiens, UniProt O43614).
T1 construct: expressed in transfected cells; host or cells: unnamed cell line stably co-expressing apoaequorin and OX2 receptor, cultured in Ham's F12 with G418 and Zeocin
T1 sequence (O43614 1-444): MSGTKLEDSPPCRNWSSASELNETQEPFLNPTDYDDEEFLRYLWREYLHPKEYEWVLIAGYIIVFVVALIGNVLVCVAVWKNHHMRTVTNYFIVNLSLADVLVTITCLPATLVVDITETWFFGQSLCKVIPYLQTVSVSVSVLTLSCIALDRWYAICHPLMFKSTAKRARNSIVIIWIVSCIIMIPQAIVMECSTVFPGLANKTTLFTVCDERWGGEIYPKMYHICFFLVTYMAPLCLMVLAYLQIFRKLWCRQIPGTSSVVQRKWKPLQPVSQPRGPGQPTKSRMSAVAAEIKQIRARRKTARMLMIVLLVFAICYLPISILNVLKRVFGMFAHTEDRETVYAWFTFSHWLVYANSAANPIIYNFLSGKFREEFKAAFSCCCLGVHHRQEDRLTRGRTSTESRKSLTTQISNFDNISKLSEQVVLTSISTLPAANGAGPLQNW
Description: Functional assay for in vitro evaluation of OX2 receptor agonist activity (aequorin light emission, increase in intracellular calcium). It is filed as cell-based. Particulars: OX2R Agonism, Table 1; cell line co-expressing apoaequorin and OX2 receptor; related to the maximum effect induced by the orexin peptide. An excerpt: The method of choice for the in vitro evaluation of OX2 receptor agonists is the measure of the increase in intracellular calcium induced by the activation of the receptor. OX2 receptor is stably expressed in a cell line co-expressing apoaequorin, a photoprotein which needs a hydrophobic prosthetic group, coelenterazine, to be converted to aequorin, the active enzyme. After calcium binding, aequorin oxidizes coelenterazine to coelenteramide with the production of CO2 and emission of light. The measurement of light emission after the addition of agonists reflects its ability to activate the receptor.
Cell line co-expressing apoaequorin and OX2 receptor were cultured as a monolayer at 37°C and 5% CO2 in complete Ham's F12 medium supplemented with FBS 10%, penicillin (100 IU/ml)-streptomycin (100 µg/ml), Geneticin (G418, 400 µg/ml) and Zeocin (250 µg/ml). Before starting the experiment, cells were incubated with a medium without antibiotics for 18 hours. After this incubation, the cells were detached from the culture plates and they were resuspended in DMEM-F12/0.1% BSA at a final concentration of 5x10^6 cells/ml. Cells were then incubated with 5 µM of coelenterazine at room temperature on a vertical rotating wheel for at least 3 hours. Following incubation with coelenterazine cells were diluted 1:10 with DMEM-F12/0.1% BSA and incubated in magnetic agitation for 1 hour.
Dose-response curves were performed for each compound. 50 µl of pre-loaded cells were injected over test compounds in a 96 wells plate. Results were expressed as the concentration of the compound where 50% of its maximal effect is observed (EC50), related to the maximum effect induced by the orexin peptide on the receptor. OX2R Agonism
With `COc1ccc(N)c(OC2=C(Cl)C(=O)c3ccccc3C2=O)c1C` [Example 1, 2-(6-amino-3-methoxy-2-methylphenoxy)-3-chloronaphthalene-1,4-dione], the EC50 was found to be 0.028 µM. On to `COc1ccc(N)c(OC2=C(Cl)C(=O)c3ccccc3C2=O)c1Cl` [Example 2, 2-(6-amino-2-chloro-3-methoxyphenoxy)-3-chloronaphthalene-1,4-dione], for which the EC50 was determined as 0.05 µM. For the compound `Cc1c(Cl)ccc(OC2=C(Cl)C(=O)c3ccccc3C2=O)c1N` [Example 3, 2-(2-amino-4-chloro-3-methylphenoxy)-3-chloronaphthalene-1,4-dione], the EC50 was 0.11 µM. Regarding `Cc1cc(C)c(N)c(OC2=C(Cl)C(=O)c3ccccc3C2=O)c1` [Example 4, 2-(2-amino-3,5-dimethylphenoxy)-3-chloronaphthalene-1,4-dione], the EC50 amounted to 0.06 µM.

Regarding `Cc1cc(Cl)cc(N)c1OC1=C(Cl)C(=O)c2ccccc2C1=O` [Example 5, 2-(2-amino-4-chloro-6-methylphenoxy)-3-chloronaphthalene-1,4-dione], the EC50 was 0.08 µM.

Take `Cc1cc(Br)cc(N)c1OC1=C(Cl)C(=O)c2ccccc2C1=O` [Example 6, 2-(2-amino-4-bromo-6-methylphenoxy)-3-chloronaphthalene-1,4-dione]: the EC50 was determined as 0.09 µM.

With `Cc1ccc(OC2=C(Cl)C(=O)c3ccccc3C2=O)c(N)c1C` [Example 7, 2-(2-amino-3,4-dimethylphenoxy)-3-chloronaphthalene-1,4-dione], the concentration giving a half-maximal response (EC50) amounted to 0.05 µM. On the same count and under the same terms, to `Cc1cc(C)c(N)c(OC2=C(Cl)C(=O)c3ccccc3C2=O)c1C` [Example 8, 2-(2-amino-3,5,6-trimethylphenoxy)-3-chloronaphthalene-1,4-dione] belongs 0.058 µM.

`Cc1cc(C)c(OC2=C(Cl)C(=O)c3ccccc3C2=O)c(N)c1C` [Example 9, 2-(2-amino-3,4,6-trimethylphenoxy)-3-chloronaphthalene-1,4-dione]: the EC50 came out at 0.13 µM.

The same test, now with this note: OX2R Agonism, Table 2, comparative examples (compounds described in PCT/EP2014/062349); same experimental methodology.
Regarding `Nc1ccccc1OC1=C(Cl)C(=O)c2ccccc2C1=O` [Example C1], the EC50 worked out at 0.516 µM. Regarding `Cc1ccc(OC2=C(Cl)C(=O)c3ccccc3C2=O)c(N)c1` [Example C2], the EC50 is 0.242 µM. Take `Nc1cc(Cl)ccc1OC1=C(Cl)C(=O)c2ccccc2C1=O` [Example C3]: the EC50 was 0.737 µM.

`Nc1ccc(Cl)cc1OC1=C(Cl)C(=O)c2ccccc2C1=O` [Example C4]: the EC50 amounted to 0.747 µM. On to `Nc1cc(F)ccc1OC1=C(Cl)C(=O)c2ccccc2C1=O` [Example C5], for which the EC50 stood at 0.578 µM.

On to `COC(=O)c1ccc(OC2=C(Cl)C(=O)c3ccccc3C2=O)c(N)c1` [Example C6], for which the EC50 is 4.06 µM. As to `CC(=O)c1ccc(OC2=C(Cl)C(=O)c3ccccc3C2=O)c(N)c1` [Example C7], the EC50 was 4.37 µM. Same read-out and setting: the figure for `Nc1cc(C(F)(F)F)ccc1OC1=C(Cl)C(=O)c2ccccc2C1=O` [Example C8] is 0.7 µM. For `Nc1ccc(F)cc1OC1=C(Cl)C(=O)c2ccccc2C1=O` [Example C9], the EC50 came to 0.39 µM. Take `Cc1cc(N)c(OC2=C(Cl)C(=O)c3ccccc3C2=O)cc1C` [Example C10]: the EC50 was 0.67 µM. Take `Nc1cc(Cl)cc(Cl)c1OC1=C(Cl)C(=O)c2ccccc2C1=O` [Example C11]: the EC50 was found to be 0.39 µM.

As for `Cc1ccc(C)c(OC2=C(Cl)C(=O)c3ccccc3C2=O)c1N` [Example C12], the EC50 came to 0.15 µM.

Broadly, the EC50 is the concentration at which the effect is half-maximal.

These data come from patent EP3029024A1, “2-(2-aminophenoxy)-3-chloronaphthalene-1,4-dione compounds having orexin 2 receptor agonist activity” (Ferrer Internacional, S.A., priority 2014, dated 2016).
